Laboratory results taken from US8772504B2, “Substituted benzoxazole, benzimidazole, oxazolopyridine and imidazopyridine derivatives as gamma secretase modulators” (Janssen Pharmaceuticals, Inc., priority 2009, dated 2014).

Legend:
Aβtotal [1] = assay: Screening for γ-secretase-modulating activity, Method 1: Aβtotal sandwich ELISA on SKNBE2 cell media; format: cell-based; settings: SKNBE2 cells carrying APP 695 wild type
How it was run: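 SKNBE2 cells expressing wild-type APP 695 were treated with compound for 18 hours. Aβtotal in the medium was measured by sandwich ELISA (6E10 capture, biotinylated 4G8 detection, fluorogenic peroxidase read-out). IC50 came from a 4-parameter fit of % inhibition with top/bottom fixed at 100/0 and Hill slope 1, or as averaged IC50 from % of untreated control.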

Aβ42 [2] = assay: In vivo efficacy Method 1: brain soluble Aβ42 by ELISA; set-up: species or system mouse; settings: Table 4a, single oral dose, overnight fasted animals, sacrificed after 4 h, soluble fraction of brain homogenates
Excerpt: (§1) To determine whether acute administration of an Aβ42 lowering agent would reduce Aβ42 levels in vivo, non-transgenic rodents, e.g. mice or rats were used. Alternatively, two to three month old Tg2576 mice expressing APP695 containing the “Swedish” variant can be used or a transgenic mouse model developed by Dr. Fred Van Leuven (K.U. Leuven, Belgium) and co-workers, with neuron-specific expression of a clinical mutant of the human amyloid precursor protein [V717I] […] Young transgenic mice have high levels of Aβ in the brain but no detectable Aβ deposition. At approximately 6-8 months of age, the transgenic mice start to display spontaneous, progressive accumulation of β-amyloid (Aβ) in the brain, eventually resulting in amyloid plaques within the subiculum, hippocampus and cortex. Animals treated with the Aβ42 lowering agent were examined and compared to those untreated or treated with vehicle and brain levels of soluble Aβ42 and total Aβ would be quantitated by standard techniques, for example, using ELISA.
(§2) A typical protocol for measuring Aβ42 lowering in vivo is shown but it is only one of many variations that could be used to optimize the levels of detectable Aβ. For example, Aβ42 lowering compounds were formulated in 20% of Captisol® (a sulfobutyl ether of β-cyclodextrin) in water or 20% hydroxypropyl β cyclodextrin. The Aβ42 lowering agents were administered as a single oral dose or by any acceptable route of administration to overnight fasted animals. After 4 h, the animals were sacrificed and Aβ42 levels were analysed.
(§3) Blood was collected by decapitation and exsanguinations in EDTA-treated collection tubes. Blood was centrifuged at 1900 g for 10 minutes (min) at 4° C. and the plasma recovered and flash frozen for later analysis. The brain was removed from the cranium and hindbrain. The cerebellum was removed and the left and right hemisphere were separated. The left hemisphere was stored at −18° C. for quantitative analysis of test compound levels. The right hemisphere was rinsed with phosphate-buffered saline (PBS) buffer and immediately frozen on dry ice and stored at −80° C. until homogenization for biochemical assays.
(§4) All samples were sonicated for 30 seconds on ice at 20% power output (pulse mode). Homogenates were centrifuged at 221.300×g for 50 min. The resulting high speed supernatants were then transferred to fresh tubes and were optionally further purified before the next step. A portion of the supernatant was neutralized with 10% 0.5 M Tris-HCl and this was used to quantify Aβtotal.
(§5) The obtained supernatants were purified with Water Oasis HLB reverse phase columns (Waters Corp., Milford, Mass.) to remove non-specific immunoreactive material from the brain lysates prior subsequent Aβ detection. Using a vacuum manifold, all solutions were passed through the columns at a rate of approximately 1 ml per min, so the vacuum pressure was adjusted accordingly throughout the procedure. Columns were preconditioned with 1 ml of 100% MeOH, before equilibration with 1 ml of H2O, Non-neutralized brain lysates were loaded onto the columns. The loaded samples were then washed twice with the first wash performed with 1 ml of 5% MeOH, and the second wash with 1 ml of 30% MeOH. Finally, the Aβ was eluted from the columns and into 100×30 mm glass tubes, with a solution of 90% MeOH with 2% NH4OH. The eluate was then transferred into 1.5 ml tubes and concentrated in a speed-vac concentrator on high heat for about 1.5-2 h at 70° C. The concentrated Aβ was then resuspended in UltraCULTURE General Purpose Serum-Free Medium (Cambrex Corp., Walkersville, Md.) plus Protease Inhibitors added.
To quantify the amount of Aβ42 in the soluble fraction of the brain homogenates, commercially available Enzyme-Linked-Immunosorbent-Assay (ELISA) kits were used (e.g. Innotest® β-Amyloid(1-42), Innogenetics N.V., Ghent, Belgium). The Aβ42 ELISA was performed using the plate provided with the kit only.

Aβtotal [3] = assay: In vivo efficacy Method 1: brain soluble Aβtotal by ELISA; set-up: species or system mouse; settings: Table 4a, single oral dose, overnight fasted animals, sacrificed after 4 h, soluble fraction of brain homogenates
Excerpt: as §1, §2, §3, §4
as §5, with “added. […]” for “added.”

Aβ42 [4] = assay: Screening for γ-secretase-modulating activity, Method 1: Aβ42 sandwich ELISA on SKNBE2 cell media; format: cell-based; settings: SKNBE2 cells carrying APP 695 wild type
How it was run: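 SKNBE2 cells expressing wild-type APP695 were treated with compound for 18 h in Ultraculture/1% glutamine. Secreted Aβ42 was quantified by sandwich ELISA (C-terminal capture, biotinylated 3D6, TMB, 450 nm), with WST-1 used as a toxicity check. IC50 was derived from 4-parameter fits of % inhibition or % of untreated control.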

Aβ42 [5] = assay: Screening for γ-secretase-modulating activity, Method 2: Aβ42 Alphalisa on SKNBE2 cell supernatant; format: cell-based; settings: Method 2, Table 3c, SKNBE2 cells carrying APP 695 wild type, overnight incubation
How it was run: (§6)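 SKNBE2 cells expressing wild-type APP695, plated at 10^4 cells/well with compound at several concentrations and incubated overnight at 37° C. Aβ42 (C-terminal capture, N-terminal biotinylated detection) and Aβtotal (N-terminal/4G8 pair) measured in supernatant by AlphaLISA. IC50 from 4-parameter fit of percent of compound-free control.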

Aβtotal [6] = assay: Screening for γ-secretase-modulating activity, Method 2: Aβtotal Alphalisa on SKNBE2 cell supernatant; format: cell-based; settings: Method 2, Table 3c, SKNBE2 cells carrying APP 695 wild type, overnight incubation
How it was run: as §6

Aβtotal [7] = assay: In vivo efficacy Method 2: brain soluble Aβtotal by ELISA; set-up: species or system mouse; settings: Table 4b, single oral dose, overnight fasted non-transgenic animals, sacrificed after 4 h, soluble fraction of brain homogenates
Excerpt: (§7) To determine whether acute administration of an Aβ42 lowering agent would reduce Aβ42 levels in vivo, non-transgenic rodents, e.g. mice or rats were used. Animals treated with the Aβ42 lowering agent were examined and compared to those untreated or treated with vehicle and brain levels of soluble Aβ42 and total Aβ were quantitated by standard techniques, for example, using ELISA. Treatment periods varied from hours (h) to days and were adjusted based on the results of the Aβ42 lowering once a time course of onset of effect could be established.
as §2, §3
(§8) Mouse brains from non-transgenic animals were resuspended in 8 volumes of 0.4% DEA (diethylamine)/50 mM NaCl containing protease inhibitors (Roche-11873580001 or 04693159001) per gram of tissue, e.g. for 0.158 g brain, add 1.264 ml of 0.4% DEA. All samples were homogenized in the FastPrep-24 system (MP Biomedicals) using lysing matrix D (MPBio #6913-100) at 6 m/s for 20 seconds. Homogenates were centrifuged at 221.300×g for 50 min. The resulting high speed supernatants were then transferred to fresh eppendorf tubes. Nine parts of supernatant were neutralized with 1 part 0.5 M Tris-HCl pH 6.8 and used to quantify Aβtotal and Aβ42.
(§9) To quantify the amount of Aβtotal and Aβ42 in the soluble fraction of the brain homogenates, Enzyme-Linked-Immunosorbent-Assays were used . Briefly, the standards (a dilution of synthetic Aβ1-40 and Aβ1-42, Bachem) were prepared in 1.5 ml Eppendorf tube in Ultraculture, with final concentrations ranging from 10000 to 0.3 pg/ml. The samples and standards were co-incubated with HRPO-labelled N-terminal antibody for Aβ42 detection and with the biotinylated mid-domain antibody 4G8 for Aβtotal detection. 50 μl of conjugate/sample or conjugate/standards mixtures were then added to the antibody-coated plate (the capture antibodies selectively recognize the C-terminal end of Aβ42, antibody JRF/cAβ42/26, for Aβ42 detection and the N-terminus of Aβ, antibody JRF/rAβ/2, for Aβtotal detection). The plate was allowed to incubate overnight at 4° C. in order to allow formation of the antibody-amyloid complex. Following this incubation and subsequent wash steps the ELISA for Aβ42 quantification was finished by addition of Quanta Blu fluorogenic peroxidase substrate according to the manufacturer's instructions (Pierce Corp., Rockford, Ill.). A reading was performed after 10 to 15 min (excitation 320/emission 420).
For Aβtotal detection, a Streptavidine-Peroxidase-Conjugate was added, followed 60 min later by an additional wash step and addition of Quanta Blu fluorogenic peroxidase substrate according to the manufacturer's instructions (Pierce Corp., Rockford, Ill.). A reading was performed after 10 to 15 min (excitation 320 nm/emission 420 nm).

Aβ42 [8] = assay: In vivo efficacy Method 2: brain soluble Aβ42 by ELISA; set-up: species or system mouse; settings: Table 4b, single oral dose, overnight fasted non-transgenic animals, sacrificed after 4 h, soluble fraction of brain homogenates
Excerpt: as §7, §2, §3, §8, §9
In this model at least 20% Aβ42 lowering compared to untreated animals would be advantageous.

[9] = Table 3a, 18 hours, XLfit, top/bottom fixed to 100 and 0, hill slope 1
[10] = Table 3b, non-linear regression of % of control, averaged IC50 values

COc1cc(Nc2cccc3oc(-c4ccc(F)cc4)nc23)ccc1-n1cnc(C)c1 [Compound 80]
IC50 (Aβtotal [1]; [9]): > 30000 nM
IC50 (Aβtotal [1]; [10]): > 10000 nM
Aβ42 (% Ctrl) _Mean (Aβ42 [2]): 97 % Ctrl
Aβtotal (% Ctrl) _Mean (Aβtotal [3]): 102 % Ctrl
IC50 (Aβ42 [4]; [9]): 1850 nM
IC50 (Aβ42 [4]; [10]): 1740 nM

COc1cc(Nc2cccc3oc(Cc4ccc(F)cc4)nc23)ccc1-n1cnc(C)c1 [Compound 82]
IC50 (Aβtotal [1]; [9]): > 3000 nM
IC50 (Aβtotal [1]; [10]): > 3000 nM
Aβ42 (% Ctrl) _Mean (Aβ42 [2]): 85 % Ctrl
Aβtotal (% Ctrl) _Mean (Aβtotal [3]): 96 % Ctrl
IC50 (Aβ42 [4]; [9]): 147 nM
IC50 (Aβ42 [4]; [10]): 141 nM

COc1cc(-c2nc3c(Nc4ccc(-n5cnc(C)n5)c(OC)c4)cccc3n2C)ccc1Cl [Compound 85]
IC50 (Aβtotal [1]; [9]): > 1000 nM
IC50 (Aβtotal [1]; [10]): > 3000 nM
Aβ42 (% Ctrl) _Mean (Aβ42 [2]): 71 % Ctrl
Aβtotal (% Ctrl) _Mean (Aβtotal [3]): 93 % Ctrl
IC50 (Aβ42 [4]; [9]): 10 nM
IC50 (Aβ42 [4]; [10]): 10 nM

COc1cc(Nc2cccc3c2nc(-c2ccc(F)cc2)n3C)ccc1-n1ncnc1C [Compound 91]
IC50 (Aβtotal [1]; [9]): > 3000 nM
IC50 (Aβtotal [1]; [10]): > 3000 nM
Aβ42 (% Ctrl) _Mean (Aβ42 [2]): 68 % Ctrl
Aβtotal (% Ctrl) _Mean (Aβtotal [3]): 94 % Ctrl
IC50 (Aβ42 [4]; [9]): 36 nM
IC50 (Aβ42 [4]; [10]): 33 nM

Cc1cn(-c2ccc(Nc3cccc4c3nc(-c3ccc(F)cc3)n4C)nn2)cn1 [Compound 95]
IC50 (Aβtotal [1]; [9]): > 10000 nM
IC50 (Aβtotal [1]; [10]): > 10000 nM
Aβ42 (% Ctrl) _Mean (Aβ42 [2]): 85 % Ctrl
Aβtotal (% Ctrl) _Mean (Aβtotal [3]): 95 % Ctrl
IC50 (Aβ42 [4]; [9]): 331 nM
IC50 (Aβ42 [4]; [10]): 331 nM

COc1cc(Nc2cccc3c2nc(-c2cccc(Cl)c2)n3C)ccc1-n1ncnc1C [Compound 96]
IC50 (Aβtotal [1]; [9]): > 1000 nM
IC50 (Aβtotal [1]; [10]): > 3000 nM
Aβ42 (% Ctrl) _Mean (Aβ42 [2]): 62 % Ctrl
Aβtotal (% Ctrl) _Mean (Aβtotal [3]): 88 % Ctrl
IC50 (Aβ42 [4]; [9]): 31 nM
IC50 (Aβ42 [4]; [10]): 24 nM

Cc1ncnn1-c1ccc(Nc2nccc3c2nc(-c2ccc(F)cc2)n3C)cc1F [Compound 97]
IC50 (Aβtotal [1]; [9]): > 3000 nM
IC50 (Aβtotal [1]; [10]): > 10000 nM
Aβ42 (% Ctrl) _Mean (Aβ42 [2]): 96 % Ctrl
Aβtotal (% Ctrl) _Mean (Aβtotal [3]): 96 % Ctrl
IC50 (Aβ42 [4]; [9]): 435 nM
IC50 (Aβ42 [4]; [10]): 398 nM

Cc1cn(-c2ccc(Nc3nccc4c3nc(-c3ccc(F)cc3F)n4C)cc2F)cn1 [Compound 104]
IC50 (Aβtotal [1]; [9]): > 3000 nM
IC50 (Aβtotal [1]; [10]): > 3000 nM
Aβ42 (% Ctrl) _Mean (Aβ42 [2]): 65 % Ctrl
Aβtotal (% Ctrl) _Mean (Aβtotal [3]): 110 % Ctrl
IC50 (Aβ42 [4]; [9]): 50 nM
IC50 (Aβ42 [4]; [10]): 44 nM

COc1nc(Nc2cc(F)cc3c2nc(-c2ccc(F)cc2)n3C(C)C)ccc1-n1cnc(C)c1 [Compound 106]
IC50 (Aβ42 [5]; Homo sapiens): 4 nM
Aβ42 (% Ctrl) _Mean (Aβ42 [2]): 87 % Ctrl
IC50 (Aβtotal [6]; Homo sapiens): 6170 nM
Aβtotal (% Ctrl) _Mean (Aβtotal [3]): 104 % Ctrl

COc1cc(-c2nc3c(Nc4ccc(-n5cnc(C)c5)c(OC)n4)cccc3n2C(C)C)ccc1Cl [Compound 131]
IC50 (Aβ42 [5]): 5 nM
Aβ42 (% Ctrl) _Mean (Aβ42 [2]): 51 % Ctrl
IC50 (Aβtotal [6]): 8130 nM
Aβtotal (% Ctrl) _Mean (Aβtotal [3]): 84 % Ctrl

COc1cc(-c2nc3c(Nc4ccc(-n5cnc(C)c5)c(F)c4)nc(C)cc3n2C)ccc1Cl [Compound 136]
Aβtotal (% Ctrl) _Mean (Aβtotal [7]): 104 % Ctrl
IC50 (Aβ42 [5]): 9 nM
Aβ42 (% Ctrl) _Mean (Aβ42 [8]): 77 % Ctrl
IC50 (Aβtotal [6]): > 10000 nM
